According to patent US5766927A, “Inhibition of protein degradation in living cells with dipeptides” (Massachusetts Institute of Technology, priority 1994, dated 1998):
Entries after “also recorded” stand apart in the source; their conditions may differ. Read-outs that look alike come from different tables or passages of the source. Residues, ends and D or L forms follow the SMILES beside them.

What was measured:
[1] = tested on: yeast (S.cerevisiae) cells; experiment: Effect on yeast cell growth (optical density at 600 nm)
Experimental: (§1) Saccharomyces cerevisiaecells of the strain BWGl-7a (MATa his4 ade1 ura3 leu2) were transformed with plasmids using conventional techniques (F. Sherman et al. Methods in Yeast Genetics Cold Spring Harbor Laboratory, N.Y., 1981). The transformed cells were grown at 30° C. in a medium of 2% galactose, 0.67% Yeast Nitrogen Base without amino acids (Difco), adenine (10 μg/mL), histidine (20 μg/mL) and leucine (60 ug/mL).
The effect of 10 mM of leucine methyl ester (Leu methyl ester) on growth of exponentially growing yeast cells harboring a plasmid expressing either arginine-βgal (Arg-βgal, .largecircle., .circle-solid.) or leucine-βgal (Leu-βgal, .quadrature.,.box-solid.), supplemented with nothing (.largecircle.,.box-solid.) or with Leu methyl ester to a 10 mM final concentration (.box-solid.,.circle-solid.), was assessed. Results are represented in FIG. 1. Growth under each of these conditions was monitored by optical density at 600 nm.

Arg-βgal = experiment: Steady state β-galactosidase activity, cells expressing Arg-βgal; settings: for in vivo metabolic stabilization of Arg-βgal (βgal activity relative to untreated control): 2 hours incubation with dipeptide
Experimental: as §1

Leu-βgal [2] = experiment: Steady state β-galactosidase activity, cells expressing Leu-βgal; assay type: cell-based, Saccharomyces cerevisiae; settings: 10 mM
Experimental: (§2) Incubation was continued at 30° C.
Control cultures (.largecircle., .quadrature.) received no methyl ester.
Exponentially growing yeast cells harboring a plasmid expressing Leu- βal were supplemented with Leu methyl ester to the 10 mM final concentration (zero time) and assayed for βgal activity over a 7 hour time course (.box-solid.). A control culture (.quadrature.) received no methyl ester.

[3] = tested on: X-βgal proteins with bulky hydrophobic amino termini (Phe-βgal, Leu-βgal, Trp-βgal, Tyr-βgal, Ile-βgal); experiment: Steady state β-galactosidase activity, X-βgal proteins with bulky hydrophobic amino-terminal residues; assay type: cell-based, Saccharomyces cerevisiae; settings: 1 hour incubation
Experimental: as §2

Val-βgal = experiment: Steady state β-galactosidase activity, cells expressing Val-βgal (control); assay type: cell-based, Saccharomyces cerevisiae; settings: Leu-OMe 0 to 10 mM, 1 hour incubation
Experimental: as §2

Leu-βgal [4] = assay type: cell-based, Saccharomyces cerevisiae; settings: for half-life (metabolic stabilization) of Leu-βgal in the presence of Leu methyl ester: 10 mM, 3 hour incubation
Experimental: (§3) Transformed cells were grown as described above, except that methionine (20 ug/mL) was included, to an optical density of about 0.5 at 600 nm. Amino acid derivatives were added and incubation continued for 4 to 5 hours until the optical density was approximately 1.0. Cells from a 10 mL culture were harvested by filtration through the well of a microtiter filtration plate. Subsequently, the cells were washed several times on the filter in the growth medium lacking methionine, and resuspended in 0.4 mL of 1% galactose, 50 mM potassium phosphate buffer (pH 7.4). (^35 S)methionine (100 uCi) was then added for a specified pulse time. The cells were collected by filtration and resuspended in 0.4 mL of the growth medium containing cycloheximide (0.2 mg/mL) and trichodermin (50 ug/mL). Samples (0.1 mL) were withdrawn at indicated times, and added to 0.8 mL of cold Buffer A (50 mM Na-HEPES pH 7.5, 0.15M NaCl, 5 mM EDTA, 1% TRiton X-100) containing leupeptin, pepstatin A, antipain, aprotinin and chymostatin (Sigma), (each at 20 ug/mL) in addition to 0.4 mL of glass beads. The cells were disrupted by vortexing three times for one minute at 4° C. The extracts were centrifuged at 12,000 g for 10 minutes and the radioactivity of acid-insoluble ^35 S in the supernatants was determined. Aliquots of the supernatants containing equal amounts of total acid-insoluble ^35 S were processed for immunoprecipitation with a monoclonal antibody to βgal. Ascitic fluid containing a molar excess of the antibody (at least ten-fold) was added to each aliquot, with subsequent incubation on ice for 1 to 2 hours. Protein A-Sepharose (Pharmacia) was then added and the suspension was incubated with rocking at 4° C. for 30 minutes and centrifuged at 12,000 g for thirty seconds. The protein A-Sepharose pellets were washed three times in Buffer A containing 0.1% SDS, resuspended in an SDS, dithiothreitol (DTT)-containing electrophoretic sample buffer, heated at 100° C. for 3 minutes, and centrifuged at 12,000 g for 20 seconds. (Laemmli, Nature 227, 680 (1970)). The supernatants were subjected to electrophoresis in a 6% discontinuous polyacrylamide-SDS gel (150 by 150 by 1.5 mm), with subsequent fluorography.
(§4) After fluorography of the pulse-chase gels, the amount of radioactivity in each band was detected by scintillation counting of the respective gel slices. Half-lives were calculated from these values (appropriately adjusted using the value from a blank gel slice) assuming a first-order kinetics of protein breakdown.
A pulse-chase experiment (5 minute pulse) was carried out with cells expressing Val-βgal (A), or Leu-βgal in the presence (B) or absence (C) of a 3 hour incubation with 10 mM Leu methyl ester. Timepoints: 0 min (lane 1); 10 min (lane 2); and 30 min (lane 3). Bands are labelled: βgal (β-galactosidase); 90 kD (a cleavage product of βgal; note its absence from the lanes with metabolically stable Val-βgal lanes); X (an unrelated protein species crossreacting with the monoclonal antibody to βgal); and S (a βgal cleavage product apparently specific for metabolically stable X-βgal; species).
A pulse-chase experiment (5 minute pulse) was carried out with cells expressing Val-βgal (A), Leu-βgal (B), Leu-βgal plus 10 mM L-Ala-L-Trp (C), and Leu-βgal plus 10 mM L-Trp-L-Ala (D). Incubation with each dipeptide was carried out for 4 hours. Timepoints: 0 min (lane 1); 10 min (lane 2); and 30 min (lane 3). See legend to FIG. 6 for band designations.

Tyr-βgal = experiment: Pulse-chase experiment in vivo and half-life determination, Tyr-βgal; assay type: cell-based, Saccharomyces cerevisiae; settings: for in vivo half-life (metabolic stabilization) of Tyr-βgal: 4 hour incubation
Experimental: as §3, §4
A pulse-chase experiment (3 minute pulse) was carried out with cells expressing Tyr-βgal in the absence (A) or presence (B) of a 4 hour incubation with 10 mM Leu methyl ester. Timepoints: 0 min (lane 1); 10 min (lane 2); 30 min (lane 3); and 60 min (lane 4). See legend to FIG. 6 for band designations.

[5] = dipeptides, over the time periods used (data not shown)
[6] = 10 mM Leu methyl ester vs minus OMe

C[C@H](N)C(=O)N[C@@H](CCCNC(=N)N)C(=O)O [L-Ala-L-Arg, L-alanine-L-arginine, reference compound] (H-Ala-Arg-OH)
effect on yeast cell growth [1, 5]: no adverse effect | in vivo metabolic stabilization of Arg-βgal (βgal activity relative to untreated control) (Arg-βgal): no effect

C[C@H](N)C(=O)N[C@@H](Cc1c[nH]c2ccccc12)C(=O)O [L-Ala-L-Trp, reference compound] (H-Ala-Trp-OH)
effect on yeast cell growth [1]: no adverse effect

C[C@@H](NC(=O)[C@@H](N)CCCNC(=N)N)C(=O)O [L-Arg-D-Ala] (HELM PEPTIDE1{R.[dA]}$$$$V2.0)
in vivo metabolic stabilization of Arg-βgal (βgal activity relative to untreated control) (Arg-βgal): stronger metabolic stabilization; also recorded: much better in vivo metabolic stabilizer

C[C@H](NC(=O)[C@@H](N)CCCN=C(N)N)C(=O)O [L-Arg-L-Ala, L-arginine-L-alanine] (H-Arg-Ala-OH)
effect on yeast cell growth [1, 5]: no adverse effect

C[C@H](NC(=O)[C@@H](N)Cc1c[nH]c2ccccc12)C(=O)O [L-Trp-L-Ala, L-tryptophan-L-alanine] (H-Trp-Ala-OH)
effect on yeast cell growth [1]: no adverse effect

COC(=O)[C@@H](N)CC(C)C [Leu methyl ester, leucine methyl ester]
effect on cell growth ([1]; 10 mM Leu methyl ester, exponentially growing cells expressing Arg-βgal or Leu-βgal): no adverse effects | steady state activity (amount) of Leu-βgal (Leu-βgal [2]; 3 hours incubation, varying initial OD600): specifically increases | increase in βgal level per hour (slope of line of best fit, compared with control levels) (Leu-βgal [2]; 7 hour time course, Leu-βgal): 11 fold per hour | magnitude of the effect on Leu-βgal levels over time (Leu-βgal [2]; first 7 hours): increases linearly with time | amount of Arg-βgal (Arg-βgal; 10 mM Leu methyl ester, 3 hours incubation, varying initial OD600): does not increase | effect on Arg-βgal level (Arg-βgal; Leu-OMe 0 to 10 mM, 1 hour incubation): No effect | concentration at which the effect reaches saturation [3]: 5 to 10 mM | levels of all 5 X-βgal proteins with bulky hydrophobic amino termini ([3]; Leu-OMe 0 to 10 mM): increased | effect on Val-βgal level (Val-βgal): No effect | 90 kD βgal cleavage product (Leu-βgal [4]; 10 mM Leu methyl ester): much diminished | increase in half-life of Leu-βgal (Leu-βgal [4]; [6]): 3 fold | zero-time increase in the amount of Leu-βgal protein (βgal band, lane 1) (Leu-βgal [4]; 10 mM Leu methyl ester, 5 minute pulse): 1.9 fold | half-life (metabolic stabilization) of Leu-βgal in the presence of Leu methyl ester (Leu-βgal [4]): metabolic stabilization | half-life (metabolic stabilization) of Leu-βgal in the presence of Leu methyl ester (Leu-βgal [4]; listed as Leu-OMe): increased | half-life (metabolic stabilization) of Leu-βgal in the presence of Leu methyl ester (Leu-βgal [4]; listed as leucine methyl ester): extended | amounts of the 90 kD cleavage product (Tyr-βgal; 10 mM Leu methyl ester): decrease | increase in half-life of Tyr-βgal (Tyr-βgal; [6]): 4.8 fold | zero-time increase in the amount of Tyr-βgal protein (Tyr-βgal; 10 mM Leu methyl ester, 3 minute pulse): 3.3 fold | in vivo half-life (metabolic stabilization) of Tyr-βgal (Tyr-βgal; 10 mM Leu methyl ester): metabolic stabilization | in vivo half-life (metabolic stabilization) of Tyr-βgal (Tyr-βgal; 10 mM Leu methyl ester, listed as Leu-OMe): increased
